Laboratory results reported in PubChem BioAssay (NCI).
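48-hour exposure; five concentrations; linearly interpolated endpoints. At the GI50, growth is halved. TGI: total growth inhibition.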

Key:
Assay in all cases: inhibition of tumour cell growth, NCI panel, 48 h
K-562 leukemia = test system: K-562 leukemia
MDA-MB-231 breast = test system: MDA-MB-231 breast
COLO 205 colon = test system: COLO 205 colon
CCRF-CEM leukemia = test system: CCRF-CEM leukemia
SN12C renal = test system: SN12C renal
U251 CNS = test system: U251 CNS
KM12 colon = test system: KM12 colon
BT-549 breast = test system: BT-549 breast
OVCAR-8 ovarian = test system: OVCAR-8 ovarian
UACC-62 melanoma = test system: UACC-62 melanoma
OVCAR-3 ovarian = test system: OVCAR-3 ovarian
NCI-H460 lung = test system: NCI-H460 lung
NCI/ADR-RES ovarian = test system: NCI/ADR-RES ovarian
MCF7 breast = test system: MCF7 breast
SNB-19 CNS = test system: SNB-19 CNS
ACHN renal = test system: ACHN renal
EKVX NSCLC = test system: EKVX NSCLC
A498 renal = test system: A498 renal
MDA-MB-435 = test system: MDA-MB-435
CAKI-1 renal = test system: CAKI-1 renal
RXF 393 renal = test system: RXF 393 renal
LOX IMVI melanoma = test system: LOX IMVI melanoma
SW-620 colon = test system: SW-620 colon
UO-31 renal = test system: UO-31 renal
TK-10 renal = test system: TK-10 renal
SF-539 CNS = test system: SF-539 CNS
PC-3 prostate = test system: PC-3 prostate
SK-MEL-28 melanoma = test system: SK-MEL-28 melanoma
HOP-92 NSCLC = test system: HOP-92 NSCLC
HCT-116 colon = test system: HCT-116 colon
DU-145 prostate = test system: DU-145 prostate
NCI-H23 lung = test system: NCI-H23 lung
SF-268 CNS = test system: SF-268 CNS
HS 578T breast = test system: HS 578T breast
T-47D breast = test system: T-47D breast
SK-MEL-5 melanoma = test system: SK-MEL-5 melanoma
HCC-2998 colon = test system: HCC-2998 colon
786-0 renal = test system: 786-0 renal
HT29 colon = test system: HT29 colon
HOP-62 NSCLC = test system: HOP-62 NSCLC
OVCAR-5 ovarian = test system: OVCAR-5 ovarian
SK-MEL-2 melanoma = test system: SK-MEL-2 melanoma
RPMI-8226 leukemia = test system: RPMI-8226 leukemia
SK-OV-3 ovarian = test system: SK-OV-3 ovarian
UACC-257 melanoma = test system: UACC-257 melanoma
A549 NSCLC = test system: A549 NSCLC
MOLT-4 leukemia = test system: MOLT-4 leukemia
NCI-H522 lung = test system: NCI-H522 lung
IGROV1 ovarian = test system: IGROV1 ovarian
SF-295 CNS = test system: SF-295 CNS
M14 melanoma = test system: M14 melanoma
HCT-15 colon = test system: HCT-15 colon
HL-60(TB) leukemia = test system: HL-60(TB) leukemia

Question: How did the GI50 (K-562 leukemia) turn out when `CCCCCC[C@@H](C)Nc1nc2ccccc2c2occc12` was run?
Answer: 19.9 µM

Question: What about the TGI (K-562 leukemia) of the same molecule?
Answer: > 100 µM

Question: And the GI50 (MDA-MB-231 breast)?
Answer: 10.8 µM

Question: What about the TGI (MDA-MB-231 breast) of the same molecule?
Answer: 22.7 µM

Question: What about the GI50 (COLO 205 colon) of the same molecule?
Answer: 21.2 µM

Question: What about the TGI (COLO 205 colon) of the same molecule?
Answer: > 100 µM

Question: What about the GI50 (CCRF-CEM leukemia) of the same molecule?
Answer: 12.2 µM

Question: What about the TGI (CCRF-CEM leukemia) of the same molecule?
Answer: 39.2 µM

Question: And the GI50 (SN12C renal)?
Answer: 12.8 µM

Question: And the TGI (SN12C renal)?
Answer: 25.4 µM

Question: And the GI50 (U251 CNS)?
Answer: 11.7 µM

Question: And the TGI (U251 CNS)?
Answer: 23.9 µM

Question: And the GI50 (KM12 colon)?
Answer: 14 µM

Question: And the TGI (KM12 colon)?
Answer: 34.4 µM

Question: What about the GI50 (BT-549 breast) of the same molecule?
Answer: 3.05 µM

Question: What about the TGI (BT-549 breast) of the same molecule?
Answer: 18.2 µM

Question: And the GI50 (OVCAR-8 ovarian)?
Answer: 20.7 µM

Question: And the TGI (OVCAR-8 ovarian)?
Answer: > 100 µM

Question: What about the GI50 (UACC-62 melanoma) of the same molecule?
Answer: 13.2 µM

Question: And the TGI (UACC-62 melanoma)?
Answer: 25.9 µM

Question: And the GI50 (OVCAR-3 ovarian)?
Answer: 13.5 µM

Question: What about the TGI (OVCAR-3 ovarian) of the same molecule?
Answer: 38.2 µM

Question: What about the GI50 (NCI-H460 lung) of the same molecule?
Answer: 4.19 µM

Question: And the TGI (NCI-H460 lung)?
Answer: > 100 µM

Question: And the GI50 (NCI/ADR-RES ovarian)?
Answer: 10.7 µM

Question: And the TGI (NCI/ADR-RES ovarian)?
Answer: 22.6 µM

Question: What about the GI50 (MCF7 breast) of the same molecule?
Answer: 10.5 µM

Question: And the TGI (MCF7 breast)?
Answer: > 100 µM

Question: And the GI50 (SNB-19 CNS)?
Answer: 17.7 µM

Question: What about the TGI (SNB-19 CNS) of the same molecule?
Answer: 50.1 µM

Question: What about the GI50 (ACHN renal) of the same molecule?
Answer: 15.5 µM

Question: And the TGI (ACHN renal)?
Answer: 28.8 µM

Question: And the GI50 (EKVX NSCLC)?
Answer: 390 nM

Question: And the TGI (EKVX NSCLC)?
Answer: 5 µM

Question: And the GI50 (A498 renal)?
Answer: 18.6 µM

Question: And the TGI (A498 renal)?
Answer: 35.1 µM

Question: And the GI50 (MDA-MB-435)?
Answer: 15.5 µM

Question: And the TGI (MDA-MB-435)?
Answer: 40.2 µM

Question: What about the GI50 (CAKI-1 renal) of the same molecule?
Answer: 13.6 µM

Question: What about the TGI (CAKI-1 renal) of the same molecule?
Answer: 32.1 µM

Question: And the GI50 (RXF 393 renal)?
Answer: 13.9 µM

Question: What about the TGI (RXF 393 renal) of the same molecule?
Answer: 34.4 µM

Question: What about the GI50 (LOX IMVI melanoma) of the same molecule?
Answer: 13.9 µM

Question: What about the TGI (LOX IMVI melanoma) of the same molecule?
Answer: 26.9 µM

Question: What about the GI50 (SW-620 colon) of the same molecule?
Answer: 11.2 µM

Question: What about the TGI (SW-620 colon) of the same molecule?
Answer: 26.5 µM

Question: And the GI50 (UO-31 renal)?
Answer: 2050 nM

Question: What about the TGI (UO-31 renal) of the same molecule?
Answer: 17.2 µM

Question: What about the GI50 (TK-10 renal) of the same molecule?
Answer: 10 µM

Question: What about the TGI (TK-10 renal) of the same molecule?
Answer: 23.6 µM

Question: What about the GI50 (SF-539 CNS) of the same molecule?
Answer: 10.5 µM

Question: What about the TGI (SF-539 CNS) of the same molecule?
Answer: 22.5 µM

Question: And the GI50 (PC-3 prostate)?
Answer: 22.9 µM

Question: And the TGI (PC-3 prostate)?
Answer: 71.6 µM

Question: And the GI50 (SK-MEL-28 melanoma)?
Answer: 18.5 µM

Question: What about the TGI (SK-MEL-28 melanoma) of the same molecule?
Answer: 36.5 µM

Question: What about the GI50 (HOP-92 NSCLC) of the same molecule?
Answer: 11.2 µM

Question: What about the TGI (HOP-92 NSCLC) of the same molecule?
Answer: 27.2 µM

Question: What about the GI50 (HCT-116 colon) of the same molecule?
Answer: 4.87 µM

Question: What about the TGI (HCT-116 colon) of the same molecule?
Answer: 18.1 µM

Question: What about the GI50 (DU-145 prostate) of the same molecule?
Answer: 9.79 µM

Question: And the TGI (DU-145 prostate)?
Answer: 21.5 µM

Question: What about the GI50 (NCI-H23 lung) of the same molecule?
Answer: 1000 nM

Question: And the TGI (NCI-H23 lung)?
Answer: 6.97 µM

Question: And the GI50 (SF-268 CNS)?
Answer: 14.7 µM

Question: What about the TGI (SF-268 CNS) of the same molecule?
Answer: 38.7 µM

Question: And the GI50 (HS 578T breast)?
Answer: 16.5 µM

Question: What about the TGI (HS 578T breast) of the same molecule?
Answer: 40.5 µM

Question: What about the GI50 (T-47D breast) of the same molecule?
Answer: 7.24 µM

Question: What about the TGI (T-47D breast) of the same molecule?
Answer: 23.2 µM

Question: And the GI50 (SK-MEL-5 melanoma)?
Answer: 2890 nM

Question: And the TGI (SK-MEL-5 melanoma)?
Answer: 18 µM

Question: What about the GI50 (HCC-2998 colon) of the same molecule?
Answer: 9.35 µM

Question: What about the TGI (HCC-2998 colon) of the same molecule?
Answer: 21.5 µM

Question: And the GI50 (786-0 renal)?
Answer: 14.3 µM

Question: And the TGI (786-0 renal)?
Answer: 27.8 µM

Question: And the GI50 (HT29 colon)?
Answer: 14.5 µM

Question: And the TGI (HT29 colon)?
Answer: 43.5 µM

Question: And the GI50 (HOP-62 NSCLC)?
Answer: 14.8 µM

Question: And the TGI (HOP-62 NSCLC)?
Answer: 28 µM

Question: What about the GI50 (OVCAR-5 ovarian) of the same molecule?
Answer: 14 µM

Question: And the TGI (OVCAR-5 ovarian)?
Answer: 27.4 µM

Question: And the GI50 (SK-MEL-2 melanoma)?
Answer: 1320 nM

Question: What about the TGI (SK-MEL-2 melanoma) of the same molecule?
Answer: 20.5 µM

Question: And the GI50 (RPMI-8226 leukemia)?
Answer: 1470 nM

Question: And the TGI (RPMI-8226 leukemia)?
Answer: > 100 µM

Question: And the GI50 (SK-OV-3 ovarian)?
Answer: 15.7 µM

Question: What about the TGI (SK-OV-3 ovarian) of the same molecule?
Answer: 32.2 µM

Question: What about the GI50 (UACC-257 melanoma) of the same molecule?
Answer: 4.67 µM

Question: What about the TGI (UACC-257 melanoma) of the same molecule?
Answer: 24 µM

Question: And the GI50 (A549 NSCLC)?
Answer: 19.4 µM

Question: And the TGI (A549 NSCLC)?
Answer: 78.2 µM

Question: And the GI50 (MOLT-4 leukemia)?
Answer: 20.9 µM

Question: What about the TGI (MOLT-4 leukemia) of the same molecule?
Answer: > 100 µM

Question: What about the GI50 (NCI-H522 lung) of the same molecule?
Answer: 1830 nM

Question: What about the TGI (NCI-H522 lung) of the same molecule?
Answer: 13.3 µM

Question: And the GI50 (IGROV1 ovarian)?
Answer: 87.1 nM

Question: And the TGI (IGROV1 ovarian)?
Answer: 11.5 µM

Question: What about the GI50 (SF-295 CNS) of the same molecule?
Answer: 1990 nM

Question: What about the TGI (SF-295 CNS) of the same molecule?
Answer: 19.5 µM

Question: And the GI50 (M14 melanoma)?
Answer: 11.2 µM

Question: And the TGI (M14 melanoma)?
Answer: 23.2 µM

Question: What about the GI50 (HCT-15 colon) of the same molecule?
Answer: 10.1 µM

Question: What about the TGI (HCT-15 colon) of the same molecule?
Answer: 21.6 µM

Question: What about the GI50 (HL-60(TB) leukemia) of the same molecule?
Answer: 22.4 µM

Question: And the TGI (HL-60(TB) leukemia)?
Answer: 62.9 µM
